Results: patent publication US20180354909A1, “SUBSTITUTED BENZIMIDAZOLIUM, PYRIDO-IMIDAZOLIUM, OR PYRAZINO-IMIDAZOLIUM COMPOUNDS AS CHEMOTHERAPEUTICS” (The Board of Regents of the University of Texas System, priority 2015, published 2018)

Experiments:
[1] = In vitro plasma half-life; assay type: in vitro ADME; settings: murine plasma; for half-life at 2 μM: mouse, plasma, read-out: Plasma T1/2 (converted)
Experimental: (§1) 12M11 (2 μM final concentration) was incubated with murine plasma and saline for 0-1440 minutes. Reactions were quenched with 200 μl (1:2) of methanol containing 0.1% formic acid and 200 ng/ml IS (IS final conc.=100 ng/mL). Samples were vortexed for 15 seconds, incubated at RT for 10 minutes and spun for 5 minutes at 13.2K rpm. Supernatant ([…]) was then transferred to an eppendorf tube and spun in a table top, chilled centrifuge for 5 minutes at 13.2K rpm. Supernatant (800 μL) was transferred to an HPLC vial (w/out insert). Analyzed by Qtrap 3200 mass spectrometer. These methods were used data obtained in the FIGS. 22C and 22F.

[2] = system: Mut6; assay: Cytotox testing (CellTiter-Glo ATP assay) in Mut6 cells; assay type: cell-based, mouse; settings: CellTiter-Glo; for EC50: Mus musculus, 96 h, Mut6 cells, 4 days, read-out: Activity in Mut6 [EC50]
Experimental: (§2) Mut6 tumor cells were cultured in DMEM/F12 media supplemented by EGF (10 ng/mL), basic FGF (10 ng/mL), heparin (4 ug/mL), glucose (total 21 mM), NaHCO3 (113 μg/mL), Hepes (119 μg/mL), glutamine (2 mM), sodium pyruvate (1 mM), N2 supplement (ThermoFisher Gibco 17502-048, 100×, at 100-fold dilution), B27 supplement (ThermoFisher Gibco 12587-010, 50×, at 100-fold dilution), and penicillin/streptomycin (ThermoFisher, final 1%). Cells were maintained in Ultra-low attachment plate (Corning) as sphere-forming cells. For ATP assays and protein/RNA isolation, cells were plated into 96-well plates or 6-well plated that were coated with poly-lysine (Sigma P6407, 10 μg/mL in PBS, 4 hr at 37° C.) and laminin (ThermoFisher 23017015, ˜5 mg/L in PBS, overnight at 37° C.). MEFs and Astrocytes were cultured in DMEM supplemented with 10% FBS and 1% Penicillin/Streptomycin.
2,000 cells were plated into each well of 96-well plates. About 3 hours later, cells were treated by 12M11, at 800-fold dilution (4 mM stock was diluted into 5 μM final concentration). […] CellTiter-Glo assay (Promega) was performed according to manufacturer's instructions, by adding 20 μL of reagent into each well. Luminescence signal was detected by the PolarStar plate reader (BMG Labtech). Experiments were performed in quadruplicate, and results are presented with mean average −/+ standard deviation. EC505 were calculated by GraphPad Prism6 software.
The compounds described herein were tested using a cell-based cytotoxicity assay against neuronal stem cells in Mut6, which is a mouse glioblastoma model cell line.

[3] = Buffer (saline) stability; assay type: physicochemical
Experimental: as §1

[4] = Murine S9 half-life; assay type: in vitro ADME; settings: mouse, S9 fraction; murine S9, Phase I cofactors; read-out: S9 T1/2
Experimental: 22D. […] (2 mM in DMSO) was incubated with Murine S9 (Lot KWB) fraction and Phase I (NADPH Regenerating System) cofactors for 0-240 minutes. Reactions were quenched with 1 mL (1:1) of methanol containing 0.2% formic acid and 100 ng/ml IS (IS final conc.=50 ng/mL). Samples were vortexed for 15 seconds, incubated at RT for 10 minutes and spun for 5 minutes at 2400 rpm. Supernatant (1 mL) was then transferred to an eppendorf tube and spun in a table top, chilled centrifuge for 5 minutes at 13.2K rpm. Supernatant (800 uL) was transferred to an HPLC vial (w/out insert). Analyzed by Qtrap 3200 mass spectrometer. These methods were used data obtained in the FIGS. 22A and 22D.

[5] = system: astrocytes; assay: Cytotox testing (CellTiter-Glo) in astrocytes; assay type: cell-based
Experimental: as §2
2,000 cells were plated into each well of 96-well plates. About 3 hours later, cells were treated by 12M11, at 800-fold dilution (4 mM stock was diluted into 5 μM final concentration). Cells were further incubated for 4 days. CellTiter-Glo assay (Promega) was performed according to manufacturer's instructions, by adding 20 μL of reagent into each well. Luminescence signal was detected by the PolarStar plate reader (BMG Labtech). Experiments were performed in quadruplicate, and results are presented with mean average −/+ standard deviation. EC505 were calculated by GraphPad Prism6 software.

Row | Buffer Stability [3] [%] | half-life at 2 μM [1] [min] | SMILES | EC50 [2] [nM] | also measured
1 | 100 |  | CCc1n(CC(=O)O[C@@H]2C[C@H](C)CC[C@H]2C(C)C)c2ccccc2[n+]1C.[Cl-] | 100 to 1000 | Plasma T1/2 [1]: < 4 min
2 |  |  | CCc1n(CC(=O)OC)c2ccccc2[n+]1C | > 5000 | 
3 |  |  | CCc1n(CC(=O)Oc2ccccc2)c2ccccc2[n+]1C | > 5000 | 
4 |  |  | CCc1n(CC(=O)OCc2ccccc2)c2ccccc2[n+]1C | > 5000 | 
5 |  |  | CCc1n(CC(=O)O[C@H]2CC[C@@H](C)CC2)c2ccccc2[n+]1C | > 5000 | 
6 |  |  | CCc1n(CC(=O)O[C@H]2CC[C@H](C)CC2)c2ccccc2[n+]1C | > 5000 | 
7 |  |  | CCc1n(CC(=O)OCCOC)c2ccccc2[n+]1C | > 5000 | 
8 |  |  | C#CCCOC(=O)Cn1c(CC)[n+](C)c2ccccc21 | > 5000 | 
9 |  |  | COC(=O)Cn1c(C)nc2ccccc21 | > 5000 | 
10 |  |  | COC(=O)Cn1c(-c2ccccc2)nc2ccccc21 | > 5000 | 
11 |  |  | COC(=O)Cn1c(-c2ccc(N(C)C)cc2)nc2ccccc21 | > 5000 | 
12 |  |  | COC(=O)Cn1c(-c2ccc(C)cc2)nc2ccccc21 | > 5000 | 
13 |  |  | COC(=O)Cn1c(-c2ccc(SC)cc2)nc2ccccc21 | > 5000 | 
14 |  |  | COC(=O)Cn1c(-c2ccc(F)cc2)nc2ccccc21 | > 5000 | 
15 |  |  | COC(=O)Cn1c(-c2cccc(F)c2)nc2ccccc21 | > 5000 | 
16 |  |  | COC(=O)Cn1c(-c2cccc(C#N)c2)nc2ccccc21 | > 5000 | 
17 |  |  | COC(=O)Cn1c(-c2ccco2)nc2ccccc21 | > 5000 | 
18 |  |  | COC(=O)Cn1c(-c2ccccn2)nc2ccccc21 | > 5000 | 
19 |  |  | COC(=O)Cn1c(/C=C/c2ccccc2)nc2ccccc21 | > 5000 | 
20 |  |  | C/C=C/c1n(CC(=O)OC2C[C@H](C)CC[C@H]2C(C)C)c2ccccc2[n+]1C (stereo partly shown) | 1000 to 5000 | 
21 |  |  | CC(C)[C@@H]1CC[C@@H](C)CC1OC(=O)Cn1c(-c2ccccc2)nc2ccccc21 (stereo partly shown) | > 5000 | 
22 | 97 | 10.6 | CC(C)[C@@H]1CC[C@@H](C)CC1OC(=O)Cn1c(-c2ccccc2)[n+](C)c2ccccc21.[I-] (stereo partly shown) | 100 to 1000 | 
23 |  |  | CC(C)[C@@H]1CC[C@@H](C)CC1OC(=O)Cn1c(-c2ccc(O)cc2)nc2ccccc21 (stereo partly shown) | > 5000 | 
24 |  |  | CC(C)[C@@H]1CC[C@@H](C)CC1OC(=O)Cn1c(-c2cccc(Br)c2)nc2ccccc21 (stereo partly shown) | > 5000 | 
25 |  |  | CC(C)[C@@H]1CC[C@@H](C)CC1OC(=O)Cn1c(-c2ccc(N=[N+]=[N-])cc2)nc2ccccc21 (stereo partly shown) | > 5000 | 

Row | Buffer Stability [3] [%] | half-life at 2 μM [1] [min] | SMILES | EC50 [2] [nM] | also measured
26 | 114 | 9.8 | CC(C)[C@@H]1CC[C@@H](C)CC1OC(=O)Cn1c(-c2ccc(O)cc2)[n+](C)c2ccccc21.[I-] (stereo partly shown) | 1000 to 5000 | half-life [4]: 133 min
27 | 94 | 29 | CC(C)[C@@H]1CC[C@@H](C)CC1OC(=O)Cn1c(-c2cccc(Br)c2)[n+](C)c2ccccc21.[I-] (stereo partly shown) | 100 to 1000 | 
28 | 96 | 26 | CC(C)[C@@H]1CC[C@@H](C)CC1OC(=O)Cn1c(-c2ccc(N=[N+]=[N-])cc2)[n+](C)c2ccccc21.[I-] (stereo partly shown) | 100 to 1000 | half-life [4]: 26 min
29 | 100 | 47 | CC(C)[C@@H]1CC[C@@H](C)CC1OC(=O)Cn1c(-c2ccccc2[N+](=O)[O-])[n+](C)c2ccccc21.[I-] (stereo partly shown) | 100 to 1000 | half-life [4]: > 240 min
30 | 133 | 330 | CC(C)[C@@H]1CC[C@@H](C)CC1OC(=O)Cn1c(-c2cccc([N+](=O)[O-])c2)[n+](C)c2ccccc21.[I-] (stereo partly shown) | 1000 to 5000 | half-life [4]: > 240 min
31 | 100 | 90 | CC(C)[C@@H]1CC[C@@H](C)CC1OC(=O)Cn1c(-c2ccc([N+](=O)[O-])cc2)[n+](C)c2ccccc21.[I-] (stereo partly shown) | 1000 to 5000 | half-life [4]: 139 min
32 | 100 | 11 | CC(C)[C@@H]1CC[C@@H](C)CC1OC(=O)Cn1c(-c2cccc(F)c2)[n+](C)c2ccccc21.[I-] (stereo partly shown) | 100 to 1000 | 
33 |  |  | CC(C)[C@@H]1CC[C@@H](C)CC1OC(=O)Cn1c(-c2cccc(C#N)c2)[n+](C)c2ccccc21 (stereo partly shown) | > 5000 | 
34 | 100 | 10 | CSc1ccc(-c2n(CC(=O)OC3C[C@H](C)CC[C@H]3C(C)C)c3ccccc3[n+]2C)cc1.[I-] (stereo partly shown) | 100 to 1000 | 
35 | 9 | 8 | CC(C)[C@@H]1CC[C@@H](C)CC1OC(=O)Cn1c(-c2ccc(N(C)C)cc2)[n+](C)c2ccccc21.[I-] (stereo partly shown) | < 100 | 
36 | 100 | 73 | Cc1ccccc1-c1n(CC(=O)OC2C[C@H](C)CC[C@H]2C(C)C)c2ccccc2[n+]1C.[I-] (stereo partly shown) | 100 to 1000 | 
37 | 95 | 24 | Cc1ccc(-c2n(CC(=O)OC3C[C@H](C)CC[C@H]3C(C)C)c3ccccc3[n+]2C)cc1.[I-] (stereo partly shown) | 100 to 1000 | 
38 | 100 | 240 | CC(C)[C@@H]1CC[C@@H](C)CC1OC(=O)Cn1c(-c2cccc(C(F)(F)F)c2)[n+](C)c2ccccc21.[I-] (stereo partly shown) | 100 to 1000 | half-life [4]: > 240 min
39 | 91 | 39 | CC(C)[C@@H]1CC[C@@H](C)CC1OC(=O)Cn1c(-c2cc(Cl)cc(Cl)c2)[n+](C)c2ccccc21.[I-] (stereo partly shown) | 100 to 1000 | 
40 | 100 | 15 | COc1ccc(-c2n(CC(=O)OC3C[C@H](C)CC[C@H]3C(C)C)c3ccccc3[n+]2C)cc1.[I-] (stereo partly shown) | 100 to 1000 | 
41 |  |  | CC(C)[C@@H]1CC[C@@H](C)CC1OC(=O)Cn1c(-c2ccc(Br)cc2)[n+](C)c2ccccc21 (stereo partly shown) | 100 to 1000 | 
42 |  |  | CC(C)[C@@H]1CC[C@@H](C)CC1OC(=O)Cn1c(-c2cccc(Cl)c2)[n+](C)c2ccccc21 (stereo partly shown) | 100 to 1000 | 
43 |  |  | CC(C)[C@@H]1CC[C@@H](C)CC1OC(=O)Cn1c(-c2ccc(Cl)c(C(F)(F)F)c2)[n+](C)c2ccccc21 (stereo partly shown) | 100 to 1000 | 
44 |  |  | CC(C)[C@@H]1CC[C@@H](C)CC1OC(=O)Cn1c(-c2ccc(C(C)(C)C)cc2)[n+](C)c2ccccc21 (stereo partly shown) | < 100 | 
45 |  |  | CC(C)[C@@H]1CC[C@@H](C)CC1OC(=O)Cn1c(-c2ccc(OC(C)(C)C)cc2)[n+](C)c2ccccc21 (stereo partly shown) | < 100 | 
46 |  |  | CCc1n(CC(=O)OC23CC4CC(CC(C4)C2)C3)c2ccccc2[n+]1C | 1000 to 5000 | 
47 |  |  | CC(C)[C@@H]1CC[C@@H](C)CC1OC(=O)Cn1c(-c2ccc(N3CCCC3)cc2)[n+](C)c2ccccc21 (stereo partly shown) | < 100 | 
48 |  |  | CC(C)[C@@H]1CC[C@@H](C)CC1OC(=O)Cn1c(-c2ccc(N3CCCCC3)cc2)[n+](C)c2ccccc21 (stereo partly shown) | < 100 | 
49 |  |  | C[C@@H]1C[C@@H]([C@H](O)CC2CC(=O)NC(=O)C2)C(=O)[C@@H](C)C1 [cycloheximide, reference compound] |  | activity against astrocytes [5]: sensitive; activity against Mut6 cells [2]: sensitive
